Results on ten compounds are retold here after PubChem BioAssay (NCI).

Where “and” joins values, the source holds several entries; their conditions need not be identical. Equal entries are not always repeated.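 Tested at 5 concentrations; 48 h exposure; 96-well plates; endpoints linearly interpolated, else capped at highest concentration. GI50 marks 50% less growth. TGI marks complete inhibition of growth.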

Common to all, as to assay: inhibition of tumour cell growth, NCI panel, 48 h
Assay [1] relates to CAKI-1 renal.
For assay [2], the system named is UO-31 renal.
Assay [3] has as its system NCI-H522 lung.
The test system of assay [4] is OVCAR-8 ovarian.
Assay [5] relates to LOX IMVI melanoma.
The subject of assay [6] is HS 578T breast.
Assay [7] relates to COLO 205 colon.
The subject of assay [8] is MCF7 breast.
The subject of assay [9] is NCI-H23 lung.
For assay [10], the system named is EKVX NSCLC.

Turning to `COc1cc(-c2nc(-c3nc4ccccc4[nH]3)cc3c2[nH]c2ccccc23)cc(OC)c1OC`, the GI50 in assay [1] was 7.03 µM; in [2] it was 3.62 µM; in assay [3] it was 3.51 µM; in assay [4], 2.79 µM; in assay [5] it was 4.72 µM; in assay [6], 4.44 µM. The GI50 in assay [7] is 4.58 µM; in assay [8], 4.11 µM; in assay [9], 4.4 µM. Besides, the TGI in assay [1], in [2], in [3], in [4], in assay [5] and in assay [6] was more than 100 µM in each case. Further, the TGI in [7], in [8] and in assay [9] was more than 100 µM each time.

Regarding `Cc1cn2c(/C=N/N=C(N)N)c(-c3cccs3)nc2s1`, the GI50 was 13.7 µM in [1]; 16.6 µM in assay [2]; 16.9 µM in [3]; 13.2 µM in assay [4]; 11.4 µM in assay [6]; 8.8 µM in [10]. For the same compound, the GI50 in assay [7] was 8.16 µM; in assay [8], 2.79 µM; in [9] it was 11.7 µM. In addition, the TGI in [1] came to 27.5 µM; in assay [2] it was 38.9 µM; in assay [3], 47.9 µM; in assay [4], 36 µM; in assay [6], 32.6 µM; in assay [10] it was 21.1 µM. Moreover, the TGI in assay [7] amounted to 69.4 µM; in assay [8], 13.7 µM; in [9] it was 24 µM.

With `O=c1c(Cl)c(Cl)c(=O)c2sc3cc(Cl)ccc3[nH]c1=2`, the TGI in assay [1] was more than 100 µM; in assay [2], 36 µM; in [3] it was 35.2 µM; in assay [4], 35 µM; in assay [6], more than 100 µM; in [10], 28.7 µM. The TGI in [7], in assay [8] and in [9] was more than 100 µM in each case.

`SCCSCCCSCCS`: the TGI in assay [2], in assay [3], in assay [4], in assay [5], in assay [10] and in [7] was more than 100 µM in each case. For the same compound, the TGI in assay [8] and in assay [9] was more than 100 µM in each case.

As for `O=C1C=CC(=O)c2cc(Sc3ccccc3)c(=O)ccc21`, the TGI in [2] was determined as 30.5 µM; in assay [3], 5.96 µM; in assay [4], 33.9 µM; in [5], 27.7 µM; in [6], 64.8 µM; in assay [10], 33.2 µM. Further, the TGI worked out at 24.9 µM in assay [7], 23.9 µM in assay [8] and 37 µM in assay [9].

As for `O=C(/C=C/c1ccccc1)n1c(-c2ccc(Cl)cc2)nc2ccccc21`, the GI50 in [2] was 1.1 µM; in assay [3], 1.23 µM; in assay [4], 0.752 µM; in [5], 0.588 µM; in assay [6], 2.57 µM; in assay [7], 1.41 µM. Moreover, the GI50 in [8] was 1.01 µM; in [9] it was 1.91 µM. The TGI in [2] came to 3.55 µM; in assay [3], 2.64 µM; in [4], 10.3 µM; in assay [5], 1.91 µM; in [6], 17.9 µM; in [7], 2.78 µM. Moreover, the TGI is 9.92 µM in assay [8] and 4.89 µM in [9].

Take `COC(=O)c1cc(O)c2c(c1C(=O)OC)C[C@H]1[C@@H]3CC=C4C[C@@H](O)CC[C@]4(C)[C@H]3CC[C@]21C`: the GI50 is 2.89 µM in assay [1]; 2.18 µM in assay [2]; 2.17 µM in assay [3]; 3.33 µM in [4]; 2.78 µM in assay [6]; 3.29 µM in [10]. In addition, the GI50 in assay [8] was 3.15 µM; in assay [9], 3.5 µM. Further, the TGI in assay [1] turned out to be 9.07 µM; in [2], 4.26 µM; in [3], 5.44 µM; in assay [4], 16.9 µM; in assay [6], 19.5 µM; in assay [10], 21.7 µM. For the same compound, the TGI in assay [8] is 12.8 µM; in assay [9], 23.5 µM.

For the compound `COc1ccc(/C=N\Nc2ccc([N+](=O)[O-])cn2)cc1OC`, the GI50 was 3.14 µM in assay [2]; more than 100 µM in assay [3]; more than 100 µM in assay [4]; more than 100 µM in assay [5]; 21 µM in assay [6]; more than 100 µM in [10]. For the same compound, in [9], the GI50 is 53.2 µM. For the same compound, the TGI in assay [2], in assay [3], in [4], in [5], in assay [6] and in assay [10] was more than 100 µM throughout. The compound also returned a TGI in assay [9] of more than 100 µM.

With `CO[C@H](C(=O)[C@@H](O)[C@@H](C)O)[C@@H]1Cc2cc3cc(OC4CC(OC5CC(O)C(O)C(C)O5)C(O)C(C)O4)c(C)c(O)c3c(O)c2C(=O)[C@H]1OC1CC(OC2CC(OC3CC(C)(O)C(O)C(C)O3)C(O)C(C)O2)C(O)C(C)O1` (stereo not given in full), the GI50 in [1] is 0.11 µg/mL and 0.0722 µg/mL; in assay [2], 0.132 µg/mL and 0.225 µg/mL; in [3] it was 0.0143 µg/mL and 0.0124 µg/mL; in assay [4], 0.0281 µg/mL and 0.0194 µg/mL; in assay [5] it was 0.0262 µg/mL; in assay [10] it was 0.042 µg/mL and 0.0335 µg/mL. The GI50 in [7] was 0.0144 µg/mL and 0.0182 µg/mL; in assay [8] it was 0.0143 µg/mL and 0.0152 µg/mL; in [9], 0.0235 µg/mL and 0.0192 µg/mL.

For `O=Cc1ccc(-c2ccc(-c3nc4ccccc4o3)cc2)o1`, the GI50 in [1] was 22.6 µM; in assay [2] it was 22.7 µM; in assay [3], 24.4 µM; in assay [4] it was 33.3 µM; in [5], 23 µM; in assay [10], 38.7 µM. The GI50 was 46.9 µM in assay [7], 14.8 µM in assay [8] and 31.8 µM in [9]. Further, the TGI in [1] was 65.9 µM; in assay [2] it was 68.5 µM; in assay [3] it was 59.3 µM; in assay [4], more than 100 µM; in assay [5] it was 60.2 µM; in assay [10] it was more than 100 µM. Also, the TGI in assay [7], in assay [8] and in assay [9] was more than 100 µM in each case.
